Results taken from ChEMBL document CHEMBL1201862, “PubChem BioAssay data set” (2004).
Active and inactive are the calls of the source.

Experiments:
[1] = target: Peroxisome proliferator-activated receptor gamma/Nuclear receptor coactivator 2 (Homo sapiens, UniProt P37231); assay: (§1) TR-FRET dose response biochemical High Throughput Screening assay for agonists of the steroid receptor coactivator 2 (SRC-2) recruitment by the peroxisome proliferator-activated receptor gamma (PPAR gamma): non-selective agonists. [Related pubchem assays: 1297, 1032 ]; type: functional
Peroxisome proliferator-activated receptor gamma/Nuclear receptor coactivator 2, sequence (P37231 whole entry): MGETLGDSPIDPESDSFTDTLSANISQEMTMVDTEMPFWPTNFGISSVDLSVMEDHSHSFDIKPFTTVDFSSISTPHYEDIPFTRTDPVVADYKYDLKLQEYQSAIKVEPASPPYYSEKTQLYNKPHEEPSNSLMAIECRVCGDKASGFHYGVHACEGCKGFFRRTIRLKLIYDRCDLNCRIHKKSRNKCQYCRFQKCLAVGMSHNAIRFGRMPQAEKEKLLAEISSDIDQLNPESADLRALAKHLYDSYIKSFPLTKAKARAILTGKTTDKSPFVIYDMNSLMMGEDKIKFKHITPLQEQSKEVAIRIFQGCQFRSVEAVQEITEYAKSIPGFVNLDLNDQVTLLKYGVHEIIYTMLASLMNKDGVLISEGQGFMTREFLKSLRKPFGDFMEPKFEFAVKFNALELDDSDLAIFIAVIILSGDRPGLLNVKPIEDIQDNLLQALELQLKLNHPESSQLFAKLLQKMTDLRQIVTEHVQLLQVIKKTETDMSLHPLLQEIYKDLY
Peroxisome proliferator-activated receptor gamma/Nuclear receptor coactivator 2, sequence (Q15596 whole entry, further chain): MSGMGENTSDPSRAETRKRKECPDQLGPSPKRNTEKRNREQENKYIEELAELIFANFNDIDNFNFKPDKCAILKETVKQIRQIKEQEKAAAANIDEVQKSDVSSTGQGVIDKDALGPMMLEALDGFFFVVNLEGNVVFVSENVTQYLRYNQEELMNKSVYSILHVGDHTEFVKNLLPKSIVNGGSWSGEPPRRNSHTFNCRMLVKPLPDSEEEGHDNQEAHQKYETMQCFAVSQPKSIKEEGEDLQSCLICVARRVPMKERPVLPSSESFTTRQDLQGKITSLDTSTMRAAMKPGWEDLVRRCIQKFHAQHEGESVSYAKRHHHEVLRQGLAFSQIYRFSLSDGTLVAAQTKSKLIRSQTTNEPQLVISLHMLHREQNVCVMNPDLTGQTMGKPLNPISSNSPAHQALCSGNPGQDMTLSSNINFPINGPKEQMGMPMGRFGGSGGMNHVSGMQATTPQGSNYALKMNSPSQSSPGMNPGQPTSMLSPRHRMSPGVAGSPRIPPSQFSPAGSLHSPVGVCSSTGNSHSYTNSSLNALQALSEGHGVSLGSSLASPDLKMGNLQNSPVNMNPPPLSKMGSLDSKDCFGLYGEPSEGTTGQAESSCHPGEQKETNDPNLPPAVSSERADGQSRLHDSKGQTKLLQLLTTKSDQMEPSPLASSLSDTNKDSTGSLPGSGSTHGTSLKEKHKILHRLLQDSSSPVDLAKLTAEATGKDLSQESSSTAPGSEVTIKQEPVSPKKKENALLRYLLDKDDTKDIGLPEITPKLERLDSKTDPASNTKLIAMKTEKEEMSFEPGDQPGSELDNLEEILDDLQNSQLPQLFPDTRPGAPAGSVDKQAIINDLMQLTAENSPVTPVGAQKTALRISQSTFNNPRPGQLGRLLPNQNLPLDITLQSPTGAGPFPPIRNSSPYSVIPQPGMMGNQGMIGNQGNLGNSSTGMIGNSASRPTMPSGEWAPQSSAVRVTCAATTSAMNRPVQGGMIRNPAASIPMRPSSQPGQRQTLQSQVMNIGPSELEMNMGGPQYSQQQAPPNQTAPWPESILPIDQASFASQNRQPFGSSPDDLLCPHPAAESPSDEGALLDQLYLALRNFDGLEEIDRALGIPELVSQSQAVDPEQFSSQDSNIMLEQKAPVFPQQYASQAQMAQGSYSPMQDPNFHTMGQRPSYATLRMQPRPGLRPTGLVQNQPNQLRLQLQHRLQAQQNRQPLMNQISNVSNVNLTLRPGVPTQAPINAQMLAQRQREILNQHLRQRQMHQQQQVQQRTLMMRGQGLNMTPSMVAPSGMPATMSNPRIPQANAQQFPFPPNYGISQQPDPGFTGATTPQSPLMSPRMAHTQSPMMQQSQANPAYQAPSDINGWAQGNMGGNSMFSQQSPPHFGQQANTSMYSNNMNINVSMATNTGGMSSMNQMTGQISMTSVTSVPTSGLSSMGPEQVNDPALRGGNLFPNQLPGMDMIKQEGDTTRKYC

[2] = target: Peroxisome proliferator-activated receptor gamma/Nuclear receptor coactivator 1 (Homo sapiens, UniProt P37231); assay: as §1, with “1 (SRC-1)” for “2 (SRC-2)”, “assays (depositor defined):AID1300, AID1808, AID504735, AID631]” for “assays: 1297, 1032 ]”; type: protein assay
[3] = target: Peroxisome proliferator-activated receptor gamma/Nuclear receptor coactivator 3 (Homo sapiens, UniProt P37231); assay: as §1, with “3 (SRC-3)” for “2 (SRC-2)”, “1301 (Confirmation screen.), 1048 (Primary screen.)]” for “1297, 1032 ]”; type: functional
Peroxisome proliferator-activated receptor gamma/Nuclear receptor coactivator 3, sequence (P37231 whole entry): as the sequence (P37231 whole entry) above
Peroxisome proliferator-activated receptor gamma/Nuclear receptor coactivator 3, sequence (Q9Y6Q9 whole entry, further chain): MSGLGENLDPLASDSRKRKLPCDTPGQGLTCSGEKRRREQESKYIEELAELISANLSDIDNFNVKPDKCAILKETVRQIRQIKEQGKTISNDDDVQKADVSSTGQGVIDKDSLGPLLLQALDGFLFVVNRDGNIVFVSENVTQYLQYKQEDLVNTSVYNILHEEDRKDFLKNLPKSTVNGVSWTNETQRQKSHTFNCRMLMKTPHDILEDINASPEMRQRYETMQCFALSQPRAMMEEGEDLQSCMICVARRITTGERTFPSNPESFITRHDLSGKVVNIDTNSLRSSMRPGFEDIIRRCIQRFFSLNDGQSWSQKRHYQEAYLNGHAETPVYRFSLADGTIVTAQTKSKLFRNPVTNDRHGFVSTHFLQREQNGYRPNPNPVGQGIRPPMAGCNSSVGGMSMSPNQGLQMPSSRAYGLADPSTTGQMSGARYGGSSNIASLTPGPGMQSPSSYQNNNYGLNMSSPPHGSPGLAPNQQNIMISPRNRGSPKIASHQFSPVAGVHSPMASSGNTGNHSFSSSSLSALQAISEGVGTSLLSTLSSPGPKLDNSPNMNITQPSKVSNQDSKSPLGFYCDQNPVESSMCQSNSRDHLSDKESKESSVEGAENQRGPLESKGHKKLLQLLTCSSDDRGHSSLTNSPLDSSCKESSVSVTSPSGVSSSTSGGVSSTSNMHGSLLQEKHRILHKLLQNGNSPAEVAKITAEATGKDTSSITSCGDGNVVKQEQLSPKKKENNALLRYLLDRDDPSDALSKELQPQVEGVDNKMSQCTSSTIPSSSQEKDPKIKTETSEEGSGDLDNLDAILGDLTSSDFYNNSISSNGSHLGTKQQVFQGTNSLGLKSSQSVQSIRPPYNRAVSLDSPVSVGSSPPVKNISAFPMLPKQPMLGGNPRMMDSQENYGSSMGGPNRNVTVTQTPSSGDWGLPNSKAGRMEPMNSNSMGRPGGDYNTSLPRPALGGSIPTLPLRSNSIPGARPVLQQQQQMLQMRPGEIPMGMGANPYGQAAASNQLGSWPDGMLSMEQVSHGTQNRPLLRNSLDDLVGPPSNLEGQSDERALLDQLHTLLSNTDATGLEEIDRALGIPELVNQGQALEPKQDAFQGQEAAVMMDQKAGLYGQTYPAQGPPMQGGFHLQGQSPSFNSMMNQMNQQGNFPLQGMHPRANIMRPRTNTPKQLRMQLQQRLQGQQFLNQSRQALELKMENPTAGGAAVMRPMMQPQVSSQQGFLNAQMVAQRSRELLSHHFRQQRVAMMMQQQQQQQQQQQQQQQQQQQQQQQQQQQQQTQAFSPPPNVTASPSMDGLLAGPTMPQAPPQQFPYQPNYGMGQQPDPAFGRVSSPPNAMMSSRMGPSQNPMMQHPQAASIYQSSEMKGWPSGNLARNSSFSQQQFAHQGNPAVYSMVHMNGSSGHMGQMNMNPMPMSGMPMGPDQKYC

[4] = target: G-protein coupled receptor 55 (Homo sapiens, UniProt Q9Y2T6); assay: selective activators of receptor GPR55 – imaging, U2OS cells, beta-arrestin-GFP redistribution, primary screen (AID 1961); type: functional
HEK293 [5] = assay: NOD2 signaling inhibitors in MDP-stimulated cells, cell-based, uHTS, luminescence (AID 2001); type: functional; conditions: Homo sapiens
HEK293 [6] = assay: cells; type: functional, cell-based; conditions: Homo sapiens
HEK293 [7] = assay: inhibition of NOD1-driven NF-kB reporter – cell-based, luminescence, uHTS, primary screen (AID 1578); type: functional; conditions: Homo sapiens
HEK293 [8] = assay: cells; type: functional, cell-based; conditions: Homo sapiens; remark: listed apart in the source
[9] = target: Nucleotide-binding oligomerization domain-containing protein 2 (Homo sapiens, UniProt Q9HC29); assay: inhibition of NOD2-driven NF-kB reporter – cell-based, luminescence, uHTS, HEK293 (AID 1566); type: functional
Nucleotide-binding oligomerization domain-containing protein 2, sequence (Q9HC29 whole entry, the tested form may be a part): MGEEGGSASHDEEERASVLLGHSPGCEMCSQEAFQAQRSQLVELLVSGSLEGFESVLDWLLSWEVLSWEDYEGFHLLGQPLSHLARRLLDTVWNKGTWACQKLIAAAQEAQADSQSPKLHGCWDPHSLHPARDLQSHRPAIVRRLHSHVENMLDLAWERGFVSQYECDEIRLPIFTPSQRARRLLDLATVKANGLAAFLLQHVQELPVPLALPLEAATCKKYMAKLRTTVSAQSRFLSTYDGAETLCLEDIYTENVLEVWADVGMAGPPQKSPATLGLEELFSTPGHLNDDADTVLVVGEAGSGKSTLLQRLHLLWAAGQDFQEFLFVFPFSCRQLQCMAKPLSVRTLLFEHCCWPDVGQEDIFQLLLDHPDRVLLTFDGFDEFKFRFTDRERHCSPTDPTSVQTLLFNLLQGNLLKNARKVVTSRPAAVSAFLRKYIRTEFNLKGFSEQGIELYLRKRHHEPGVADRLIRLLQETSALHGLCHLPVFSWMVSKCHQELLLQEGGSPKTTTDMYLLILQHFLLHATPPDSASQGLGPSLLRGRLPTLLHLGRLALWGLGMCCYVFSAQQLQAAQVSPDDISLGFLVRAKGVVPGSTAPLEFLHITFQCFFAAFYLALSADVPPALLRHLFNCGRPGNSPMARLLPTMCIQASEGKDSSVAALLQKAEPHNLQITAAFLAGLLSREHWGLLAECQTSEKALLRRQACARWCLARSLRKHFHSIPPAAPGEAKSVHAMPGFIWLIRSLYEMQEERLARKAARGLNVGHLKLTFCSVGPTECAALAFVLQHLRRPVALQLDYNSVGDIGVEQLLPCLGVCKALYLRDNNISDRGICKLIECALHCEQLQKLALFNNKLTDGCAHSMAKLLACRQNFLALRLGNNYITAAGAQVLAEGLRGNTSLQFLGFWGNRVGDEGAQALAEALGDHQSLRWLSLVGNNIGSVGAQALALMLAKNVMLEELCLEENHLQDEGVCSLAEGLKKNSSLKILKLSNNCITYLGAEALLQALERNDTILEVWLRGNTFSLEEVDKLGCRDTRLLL

HEK293 [10] = assay: cells; type: functional, cell-based; conditions: Homo sapiens; remark: listed apart in the source
BJ [11] = assay: BJ-TERT fibroblast viability loss – cell-based, RAS-independent, luminescence, dose response (AID 1933); type: functional; conditions: Homo sapiens
BJ [12] = assay: BJ-TERT-LT-ST fibroblast viability loss – cell-based, RAS-independent, luminescence, dose response (AID 1935); type: functional; conditions: Homo sapiens;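 also: BJ fibroblasts immortalized with TERT plus LT and ST oncogenes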
Nonstructural protein 1 = Nonstructural protein 1 (Influenza A virus, UniProt Q194T2); type: functional, Influenza A virus (A/California/07/2009(H1N1))
[13] = DRD fibroblast viability loss – cell-based, non-viral oncogenic, luminescence, dose response (AID 1934); type: functional; conditions: Homo sapiens
BJ [14] = assay: cells; type: functional, cell-based; conditions: Homo sapiens
[15] = target: T1, Polyadenylate-binding protein 1 (Homo sapiens, UniProt P11940); assay: MLLE binding blockers, Cy5 peptide tracer – biochemical, fluorescence polarization, Cy5-PAM2 peptide, secondary, miRNA deadenylation inhibitor project, dose response (AID 602260); type: functional; conditions: read-out: IC50_Mean
[16] = target: T1, Polyadenylate-binding protein 1; assay: MLLE domain peptide-binding blockers, IC50 – biochemical, fluorescence polarization, FITC-PAM2 peptide, dose response (AID 602259); type: functional; conditions: read-out: IC50_Mean

Row | Structure (SMILES) | EC50 [1] | EC50 [2] | EC50 [3] | IC50 (HEK293 [5]) | IC50 (HEK293 [6]) | EC50 (HEK293 [7]) | IC50 (HEK293 [8]) | EC50 [9] | IC50 (HEK293 [10]) | other results
1 | Cc1ccc2nc(NC(=O)CSc3ncnc4c3oc3ccccc34)sc2c1 | > 79.4 µM (not active) | > 79.4 µM (inactive) | > 79.4 µM (not active) | – | – | – | – | – | – | –
2 | CC(=C/c1ccccc1)/C=N/NC(=O)c1nnn(-c2nonc2N)c1CN1CCC(C)CC1 | – | – | – | – | – | – | – | – | – | EC50 [4]: 0.601 µM (active)
3 | CCc1c(C)nc2ccc(Br)cc2c1SCCC#N | – | – | – | 1.74 µM (active) | > 20 µM (inactive) | 3.05 µM (active) | 1.29 µM (active) | 3.84 µM (active) | > 20 µM (inactive) | –
4 | C/C(=N\NC(=O)c1ccccc1F)c1ccccn1 | – | – | – | 3.76 µM (inactive) | > 20 µM (inactive) | 18 µM (active) | 9.17 µM (active) | > 20 µM (inactive) | > 20 µM (inactive) | EC50 (BJ [11]): 12 µM (inconclusive); EC50 (BJ [12]): 10.9 µM (active); IC50 (Nonstructural protein 1): 5.72 µM (active); EC50 [13]: 2.9 µM (active); EC50 (BJ [14]): 4.68 µM (inconclusive)
5 | CCOC(=O)c1sc(=S)n(-c2ccccc2Cl)c1SC | 12.5 µM (not active) | 10.7 µM (inactive) | > 79.4 µM (not active) | – | – | – | – | – | – | IC50 [15]: > 66 µM (inactive); IC50 [16]: > 66 µM (inactive)
